Assay results published in the supplement of paper PMC10307832.

Columns and labels:
Test in all cases: relative viability (nuclei count vs DMSO), 5 days (fraction); higher = more cells survive
[1] = compound: CCn1c(-c2nonc2N)nc2c(C#CC(C)(C)O)ncc(OC[C@H]3CCCNC3)c21 + Nc1ncn([C@H]2C[C@H](O)[C@@H](CO)O2)c(=O)n1 [Decitabine] (partner 2 µM)
Outline: (§1)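 Relative viability was taken as the ratio of nuclei in treated wells to nuclei in vehicle wells. Lung cancer cell lines in 1536-well plates received compounds by pin tool one day after seeding, either one drug alone or a fixed anchor-drug dose plus five library-drug doses (not always all listed) in √10 steps. Nuclei were counted on 4× images after 5 days of treatment, and values are medians of duplicate plates.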

[2] = compound: CCn1c(-c2nonc2N)nc2c(C#CC(C)(C)O)ncc(OC[C@H]3CCCNC3)c21 + CC(=O)c1c(C)c2cnc(Nc3ccc(N4CCNCC4)cn3)nc2n(C2CCCC2)c1=O [Palbociclib] (partner 0.5 µM)
Outline: as §1

[3] = compound: CCOC1=CC=CC=C1N=NC2=C(NN(C2=O)C3=NC(=CS3)C4=CC=CC=C4)C [BAM7] + C[C@@H](Oc1cc(-c2cnn(C3CCNCC3)c2)cnc1N)c1c(Cl)ccc(F)c1Cl [Crizotinib] (partner 1 µM)
Outline: as §1

[4] = compound: CCOC1=CC=CC=C1N=NC2=C(NN(C2=O)C3=NC(=CS3)C4=CC=CC=C4)C [BAM7] + C[C@]1(O)C[C@@H](c2nc(-c3ccc4ccc(-c5ccccc5)nc4c3)c3c(N)nccn32)C1 [Linsitinib] (partner 1 µM)
Outline: as §1

NCI-H2085
relative viability ([1]; first compound 0.01 µM): 0.489 | relative viability ([1]; first compound 0.03162 µM): 0.517 | relative viability ([1]; first compound 0.1 µM): 0.601 | relative viability ([1]; first compound 0.3162 µM): 0.58 | relative viability ([1]; first compound 1 µM): 0.556 | relative viability ([2]; first compound 0.01 µM): 0.49 | relative viability ([2]; first compound 0.03162 µM): 0.426 | relative viability ([2]; first compound 0.1 µM): 0.481 | relative viability ([2]; first compound 0.3162 µM): 0.455 | relative viability ([2]; first compound 1 µM): 0.48 | relative viability ([3]; first compound 0.5 µM): 0.829 | relative viability ([3]; first compound 5 µM): 0.956 | relative viability ([3]; first compound 15.81 µM): 0.75 | relative viability ([3]; first compound 50 µM): 0.859 | relative viability ([4]; first compound 0.5 µM): 0.968 | relative viability ([4]; first compound 5 µM): 1.03 | relative viability ([4]; first compound 15.81 µM): 0.821 | relative viability ([4]; first compound 50 µM): 0.911

NCI-H2087
relative viability ([1]; first compound 0.01 µM): 0.327 | relative viability ([1]; first compound 0.1 µM): 0.283 | relative viability ([1]; first compound 0.3162 µM): 0.208 | relative viability ([1]; first compound 1 µM): 0.326 | relative viability ([2]; first compound 0.01 µM): 0.214 | relative viability ([2]; first compound 0.1 µM): 0.225 | relative viability ([2]; first compound 0.3162 µM): 0.248 | relative viability ([2]; first compound 1 µM): 0.293 | relative viability ([3]; first compound 0.5 µM): 0.887 | relative viability ([3]; first compound 5 µM): 0.916 | relative viability ([3]; first compound 15.81 µM): 0.856 | relative viability ([3]; first compound 50 µM): 0.7 | relative viability ([4]; first compound 0.5 µM): 0.974 | relative viability ([4]; first compound 5 µM): 1.27 | relative viability ([4]; first compound 15.81 µM): 0.893 | relative viability ([4]; first compound 50 µM): 0.903

NCI-H2126
relative viability ([1]; first compound 0.01 µM): 0.505 | relative viability ([1]; first compound 0.03162 µM): 0.608 | relative viability ([1]; first compound 0.1 µM): 0.583 | relative viability ([1]; first compound 0.3162 µM): 0.54 | relative viability ([1]; first compound 1 µM): 0.548 | relative viability ([2]; first compound 0.01 µM): 0.325 | relative viability ([2]; first compound 0.03162 µM): 0.319 | relative viability ([2]; first compound 0.1 µM): 0.365 | relative viability ([2]; first compound 0.3162 µM): 0.335 | relative viability ([2]; first compound 1 µM): 0.377 | relative viability ([3]; first compound 0.5 µM): 0.969 | relative viability ([3]; first compound 5 µM): 0.88 | relative viability ([3]; first compound 15.81 µM): 0.832 | relative viability ([3]; first compound 50 µM): 0.87 | relative viability ([4]; first compound 0.5 µM): 0.7 | relative viability ([4]; first compound 5 µM): 0.63 | relative viability ([4]; first compound 15.81 µM): 0.706 | relative viability ([4]; first compound 50 µM): 0.704

NCI-H2347
relative viability ([1]; first compound 0.01 µM): 0.603 | relative viability ([1]; first compound 0.03162 µM): 0.575 | relative viability ([1]; first compound 0.1 µM): 0.616 | relative viability ([1]; first compound 0.3162 µM): 0.577 | relative viability ([1]; first compound 1 µM): 0.605 | relative viability ([2]; first compound 0.01 µM): 0.394 | relative viability ([2]; first compound 0.03162 µM): 0.445 | relative viability ([2]; first compound 0.1 µM): 0.492 | relative viability ([2]; first compound 0.3162 µM): 0.422 | relative viability ([2]; first compound 1 µM): 0.435 | relative viability ([3]; first compound 0.5 µM): 0.738 | relative viability ([3]; first compound 5 µM): 0.995 | relative viability ([3]; first compound 15.81 µM): 0.674 | relative viability ([3]; first compound 50 µM): 0.745 | relative viability ([4]; first compound 0.5 µM): 0.983 | relative viability ([4]; first compound 5 µM): 1.18 | relative viability ([4]; first compound 15.81 µM): 0.971 | relative viability ([4]; first compound 50 µM): 0.982

NCI-H2405
relative viability ([1]; first compound 0.01 µM): 0.782 | relative viability ([1]; first compound 0.03162 µM): 0.75 | relative viability ([1]; first compound 0.1 µM): 0.721 | relative viability ([1]; first compound 0.3162 µM): 0.692 | relative viability ([1]; first compound 1 µM): 0.647 | relative viability ([2]; first compound 0.01 µM): 0.52 | relative viability ([2]; first compound 0.03162 µM): 0.539 | relative viability ([2]; first compound 0.1 µM): 0.472 | relative viability ([2]; first compound 0.3162 µM): 0.481 | relative viability ([2]; first compound 1 µM): 0.511 | relative viability ([3]; first compound 0.5 µM): 0.896 | relative viability ([3]; first compound 5 µM): 0.965 | relative viability ([3]; first compound 15.81 µM): 0.796 | relative viability ([3]; first compound 50 µM): 0.805 | relative viability ([4]; first compound 0.5 µM): 1.02 | relative viability ([4]; first compound 5 µM): 0.881 | relative viability ([4]; first compound 15.81 µM): 0.865 | relative viability ([4]; first compound 50 µM): 1.09
